{"source": "paper PMC10590056", "about": "“Design and synthesis of cabotegravir derivatives bearing 1,2,3-triazole and evaluation of anti-liver cancer activity” (Frontiers in Pharmacology, 2023)", "format_in_all_cases": "cell-based", "key": {"HepG2 cells [1]": {"tested_on": "HepG2 cells", "test": "Transwell migration assay (without Matrigel)", "details": "HepG2, 24 h treatment, vs control", "protocol": "HepG2 cells were treated with either KJ-5 or KJ-12 for 24 h. Then, the cells were suspended and seeded into the upper chamber of a 24-well Transwell plate (Corning Inc., United States) in serum-free medium. The cells were cultured for 24 h at 37°C; a medium containing 20% FBS as a chemoattractant was added to the lower chamber. HepG2 cells that had invaded through the membrane were fixed with 4% paraformaldehyde for 20 min and stained with 0.1% crystal violet. Five random fields were then imaged and quantified using an inverted fluorescence microscope (Axio Observer3, Germany). To assess invasion, transwell assays were performed in a similar manner, with the exception of coating the upper chamber of the Transwell with 100 μL of diluted Matrigel solution per well."}, "[2]": {"tested_on": "Bcl-2, Bax, cleaved caspase-9, cleaved caspase-3, cleaved PARP in HepG2 cells", "test": "Western blot of mitochondrial apoptotic proteins", "protocol": "After being pretreated with either KJ-5 or KJ-12 at concentrations of 2, 4, or 8 μM for 24 h, the cells were harvested and lysed using an ice-cold cell lysis buffer from Beyotime Biotechnology (Shanghai, China). The proteins were mixed with a loading buffer and denatured by heating at 95°C–100°C for 5–10 min. Equal amounts of protein were loaded onto a 10% SDS-PAGE gel along with a molecular weight marker and separated by electrophoresis for 2 h. The separated proteins were transferred onto a PVDF membrane, which was blocked with 5% non-fat milk for non-specific binding sites on the membrane. Then, the membrane was incubated with primary antibodies at 4°C overnight. Following incubation with the primary antibody, the membrane was incubated with HRP-conjugated goat anti-rabbit or goat anti-mouse IgG at 37°C for 1 h. Protein bands were visualized on the PVDF membrane using an ECL hypersensitive chemiluminescence solution and a Bio-Rad gel imaging and analysis system."}, "HepG2 cells [3]": {"tested_on": "HepG2 cells", "test": "DAPI staining for cell apoptosis (morphology)", "details": "HepG2, 2, 4, 8 μM, 24 h", "protocol": "Apoptotic morphological changes were determined by DAPI staining. HepG2 cells were seeded in a 48-well plate and treated with different concentrations of KJ-5 and KJ-12 (2, 4, and 8 μM) for 24 h. After 24 h, they were then washed with PBS and fixed with 4% paraformaldehyde for 20 min. Subsequently, they were then washed with PBS and treated with DAPI (10 μg/mL) at 37°C for 5 min. After washing with PBS, the cells were resuspended in PBS for the rest of the experiment. A fluorescence microscope was used to observe the apoptotic morphological changes."}, "KYSE-30 cells": {"tested_on": "KYSE-30 cells", "test": "MTT assay for cell proliferation, KYSE-30", "set-up": "key to Inhibitory rate: inhibition rate = 1 - mean A490 sample/mean A490 control (fraction)", "summary_of_the_method": "(§1)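 Cells grown in DMEM with 10% FBS at 37 °C, 5% CO2, seeded at 10^5 cells/mL and exposed to KJ-5 or KJ-12 at 0–32 μM for 48 h. MTT added for 4 h, formazan dissolved in DMSO, A490 read; inhibition = (1 − sample/control A490) × 100%.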"}, "HepG2 cells [4]": {"tested_on": "HepG2 cells", "test": "MTT assay for cell proliferation and cytotoxicity, HepG2", "set-up": "key to Inhibitory rate: inhibition rate = 1 - mean A490 sample/mean A490 control (fraction)", "summary_of_the_method": "as §1"}, "MCF-7 cells": {"tested_on": "MCF-7 cells", "test": "MTT assay for cell proliferation, MCF-7", "set-up": "key to Inhibitory rate / Inhibition rate: inhibition rate = 1 - mean A490 sample/mean A490 control (fraction)", "summary_of_the_method": "as §1"}, "[5]": {"details": "HepG2, fraction, per experiment"}, "[6]": {"details": "MCF-7, fraction, per experiment"}}, "note": "“And” between values parts separate entries of the source, which are not always exact repeats. Identical values can stand only once. Like-named read-outs stand apart in the source and are kept apart here.", "data": [{"smiles": "COc1c2n(cc(C(=O)Nc3cccc(-c4cn(-c5c(C)cc(C)cc5C)nn4)c3)c1=O)C[C@H]1OC[C@H](C)N1C2=O", "note": "[KJ-12]", "values": [{"measurement": "Migration of HepG2 cells (transwell without Matrigel)", "setting": "HepG2 cells [1]", "value": "significantly impaired"}, {"measurement": "Bax levels", "setting": "[2]; HepG2, 2, 4 or 8 μM, 24 h", "value": "increased"}, {"measurement": "Bax/Bcl-2 ratio", "setting": "[2]; HepG2, 2, 4 or 8 μM, 24 h", "value": "increased"}, {"measurement": "Bcl-2 protein levels", "setting": "[2]; HepG2, 2, 4 or 8 μM, 24 h", "value": "decreased"}, {"measurement": "Expression of cleaved PARP", "setting": "[2]; HepG2, vs control", "value": "significant increase"}, {"measurement": "Expression of cleaved caspase-3", "setting": "[2]; HepG2, vs control", "value": "significant increase"}, {"measurement": "Expression of cleaved caspase-9", "setting": "[2]; HepG2, vs control", "value": "significant increase"}, {"measurement": "Apoptotic morphological changes, DAPI staining", "setting": "HepG2 cells [3]", "value": "cell shrinkage, nuclear condensation, and chromatin fragmentation"}, {"measurement": "IC50", "setting": "KYSE-30 cells; Homo sapiens, KYSE-30, 48 h, MTT, read-out: IC50 KYSE-30", "value": "11.7 ± 0.21", "unit": "µM"}, {"measurement": "IC50", "setting": "KYSE-30 cells; Homo sapiens, KYSE-30, KYSE-30, one of three experiments, unit inferred, read-out: IC50, single experiment, KYSE-30", "value": 11.8, "unit": "µM"}, {"measurement": "inhibition at 16 µM", "setting": "KYSE-30 cells; Homo sapiens, preliminary screening, KYSE-30, 16 μM, 48 h, mean±SD, unit inferred, read-out: Inhibition rate (16μM), 48 h, KYSE-30", "value": "56.1 ± 4.59", "unit": "%"}, {"measurement": "ODtreated/ODcontrol", "setting": "KYSE-30 cells; KYSE-30, first of three experiments", "value": 0.4595}, {"measurement": "Inhibitory rate", "setting": "KYSE-30 cells; KYSE-30, given as fraction, first of three experiments", "value": 0.5405}, {"measurement": "Inhibitory rate", "setting": "KYSE-30 cells; KYSE-30, given as fraction, second of three experiments", "value": 0.5295}, {"measurement": "Inhibitory rate", "setting": "KYSE-30 cells; KYSE-30, given as fraction, third of three experiments", "value": 0.614}, {"measurement": "Inhibitory rate", "setting": "KYSE-30 cells; KYSE-30, group 1 (concentration), fraction, single experiments", "value": "0.1337 and 0.126 and 0.1387"}, {"measurement": "ODtreated/ODcontrol", "setting": "KYSE-30 cells; KYSE-30, group 1 (concentration), single experiments", "value": "0.8663 and 0.874 and 0.8613"}, {"measurement": "Inhibitory rate", "setting": "KYSE-30 cells; KYSE-30, group 2 (concentration), fraction, single experiments", "value": "0.1741 and 0.1797 and 0.2087"}, {"measurement": "ODtreated/ODcontrol", "setting": "KYSE-30 cells; KYSE-30, group 2 (concentration), single experiments", "value": "0.8259 and 0.8203 and 0.7913"}, {"measurement": "Inhibitory rate", "setting": "KYSE-30 cells; KYSE-30, group 4 (concentration), fraction, single experiments", "value": "0.2947 and 0.287 and 0.2904"}, {"measurement": "ODtreated/ODcontrol", "setting": "KYSE-30 cells; KYSE-30, group 4 (concentration), single experiments", "value": "0.7053 and 0.713 and 0.7096"}, {"measurement": "Inhibitory rate", "setting": "KYSE-30 cells; KYSE-30, group 8 (concentration), fraction, single experiments", "value": "0.4545 and 0.4401 and 0.4294"}, {"measurement": "ODtreated/ODcontrol", "setting": "KYSE-30 cells; KYSE-30, group 8 (concentration), single experiments", "value": "0.5455 and 0.5599 and 0.5706"}, {"measurement": "Inhibitory rate", "setting": "KYSE-30 cells; KYSE-30, group 16 (concentration), fraction, single experiments", "value": "0.517 and 0.5136 and 0.5274"}, {"measurement": "ODtreated/ODcontrol", "setting": "KYSE-30 cells; KYSE-30, group 16 (concentration), single experiments", "value": "0.483 and 0.4864 and 0.4726"}, {"measurement": "Inhibitory rate", "setting": "KYSE-30 cells; KYSE-30, group 32 (concentration), fraction, single experiments", "value": "0.7126 and 0.7246 and 0.731"}, {"measurement": "ODtreated/ODcontrol", "setting": "KYSE-30 cells; KYSE-30, group 32 (concentration), single experiments", "value": "0.2874 and 0.2754 and 0.269"}, {"measurement": "IC50", "setting": "KYSE-30 cells; KYSE-30, one of three experiments, unit inferred, read-out: IC50, single experiment, KYSE-30", "value": "11.9 µM and 11.5 µM"}, {"measurement": "ODtreated/ODcontrol", "setting": "KYSE-30 cells; KYSE-30, second of three experiments", "value": 0.4705}, {"measurement": "ODtreated/ODcontrol", "setting": "KYSE-30 cells; KYSE-30, third of three experiments", "value": 0.386}, {"measurement": "Inhibitory rate", "setting": "HepG2 cells [4]; [5]", "value": "0.742 and 0.7786 and 0.787"}, {"measurement": "ODtreated/ODcontrol", "setting": "HepG2 cells [4]; [5]", "value": "0.258 and 0.2214 and 0.213"}, {"measurement": "inhibition at 4 µM", "setting": "HepG2 cells [4]; Homo sapiens, HepG2, liver cancer cells, 4 μM, read-out: Inhibition rate on liver cancer cells", "value": "~50", "unit": "%"}, {"measurement": "IC50", "setting": "HepG2 cells [4]; Homo sapiens, HepG2, 48 h, MTT", "value": "4.07 ± 0.09", "unit": "µM"}, {"measurement": "inhibition at 16 µM", "setting": "HepG2 cells [4]; Homo sapiens, preliminary screening, HepG2, 16 μM, 48 h, mean±SD, unit inferred, read-out: Inhibition rate (16μM), 48 h, HepG2", "value": "76.9 ± 2.4", "unit": "%"}, {"measurement": "IC50", "setting": "MCF-7 cells; Homo sapiens, MCF7, 48 h, MCF-7, 48 h, MTT, read-out: IC50 MCF-7", "value": "8.55 ± 0.6", "unit": "µM"}, {"measurement": "IC50", "setting": "MCF-7 cells; Homo sapiens, MCF7, MCF-7, one of three experiments, unit inferred, read-out: IC50, single experiment, MCF-7", "value": 9.23, "unit": "µM"}, {"measurement": "inhibition at 16 µM", "setting": "MCF-7 cells; Homo sapiens, MCF7, preliminary screening, MCF-7, 16 μM, 48 h, mean±SD, unit inferred, read-out: Inhibition rate (16μM), 48 h, MCF-7", "value": "54.7 ± 1.79", "unit": "%"}, {"measurement": "Inhibitory rate", "setting": "MCF-7 cells; MCF-7, group 1 (concentration), fraction, single experiments", "value": "0.2053 and 0.2025 and 0.1943"}, {"measurement": "ODtreated/ODcontrol", "setting": "MCF-7 cells; MCF-7, group 1 (concentration), single experiments", "value": "0.7947 and 0.7975 and 0.8057"}, {"measurement": "Inhibitory rate", "setting": "MCF-7 cells; MCF-7, group 2 (concentration), fraction, single experiments", "value": "0.2385 and 0.2481 and 0.2879"}, {"measurement": "ODtreated/ODcontrol", "setting": "MCF-7 cells; MCF-7, group 2 (concentration), single experiments", "value": "0.7615 and 0.7519 and 0.7121"}, {"measurement": "Inhibitory rate", "setting": "MCF-7 cells; MCF-7, group 4 (concentration), fraction, single experiments", "value": "0.3137 and 0.3313 and 0.3802"}, {"measurement": "ODtreated/ODcontrol", "setting": "MCF-7 cells; MCF-7, group 4 (concentration), single experiments", "value": "0.6863 and 0.6687 and 0.6198"}, {"measurement": "Inhibitory rate", "setting": "MCF-7 cells; MCF-7, group 8 (concentration), fraction, single experiments", "value": "0.4877 and 0.4713 and 0.472"}, {"measurement": "ODtreated/ODcontrol", "setting": "MCF-7 cells; MCF-7, group 8 (concentration), single experiments", "value": "0.5123 and 0.5287 and 0.528"}, {"measurement": "Inhibitory rate", "setting": "MCF-7 cells; MCF-7, group 16 (concentration), fraction, single experiments", "value": "0.5949 and 0.6244 and 0.5636"}, {"measurement": "ODtreated/ODcontrol", "setting": "MCF-7 cells; MCF-7, group 16 (concentration), single experiments", "value": "0.4051 and 0.3756 and 0.4364"}, {"measurement": "Inhibitory rate", "setting": "MCF-7 cells; MCF-7, group 32 (concentration), fraction, single experiments", "value": "0.7215 and 0.7706 and 0.7971"}, {"measurement": "ODtreated/ODcontrol", "setting": "MCF-7 cells; MCF-7, group 32 (concentration), single experiments", "value": "0.2785 and 0.2294 and 0.2029"}, {"measurement": "IC50", "setting": "MCF-7 cells; MCF-7, one of three experiments, unit inferred, read-out: IC50, single experiment, MCF-7", "value": "8.35 µM and 8.08 µM"}, {"measurement": "Inhibitory rate", "setting": "MCF-7 cells; [6]", "value": 0.5407}, {"measurement": "ODtreated/ODcontrol", "setting": "MCF-7 cells; [6]", "value": 0.4593}, {"measurement": "Inhibitory rate", "setting": "MCF-7 cells; given as fraction, second of three experiments", "value": 0.5326}, {"measurement": "Inhibition rate", "setting": "MCF-7 cells; given as fraction, third of three experiments", "value": 0.5669}, {"measurement": "ODtreated/ODcontrol", "setting": "MCF-7 cells; second of three experiments", "value": 0.4674}, {"measurement": "ODtreated/ODcontrol", "setting": "MCF-7 cells; third of three experiments", "value": 0.4331}]}]}
